“And” between values parts separate entries of the source, which are not always exact repeats. Equal entries are not always repeated.
Legend:
PC-3 cells [1] = experiment: Annexin V-FITC/propidium iodide flow cytometry, apoptosis; type: cell-based, human; conditions: PC-3, 48 h incubation, Annexin V-FITC, ± SD, control 8.37 ± 1.06%
Experimental: (§1) Data are presented as mean percentage of apoptotic cells (early and late apoptotic) ± SD values. The differences between the experimental samples and vehicle control were evaluated by the ANOVA test followed by Tukey’s test (p < 0.05). Experiments were performed in triplicate. For flow cytometry analysis with Annexin V-FITC staining, the approximate number of analyzed cells was (N = 1 × 10^4), contrasting with the dual acridine orange/ethidium bromide (AO/EB) fluorescent staining (N = 200).
(§2) The Annexin V-FITC Apoptosis Detection Kit was used to estimate the apoptosis induction following 24 and 48 h incubation with the tested MM-compounds. During apoptosis, phosphatidylserine is transformed from the inner cell membrane to the cell surface, which can be detected by the annexin-FITC complex. The addition of propidium iodide to the reaction mixture allows the assessment of cell membrane integrity. Using flow cytometry analysis, four subpopulations of cells can be distinguished: alive (non-stained), necrotic (propidium iodide stained), early apoptotic (annexin V stained cells), or late-apoptotic cells (propidium iodide and annexin V stained). BxPC-3 and PC-3 cells were seeded at appropriate density on a 6-well plate (Table 9).
(§3) The experimental design included vehicle control (final solvent concentration was < 0.5% v/v DMSO), and cells treated with 2 µM SN-38 (active metabolite of irinotecan) used as a positive compensation control. Cells were left for incubation for another 24 or 48 h (37 °C; 5% CO2). After exposure, cells were trypsinized and transferred to cytometric tubes, left for 40 min, and centrifuged at 1400 rpm for 10 min at 4 °C. Afterward, the supernatant was removed, and the precipitate was diluted in 1 mL of PBS. The rest of the procedure was performed according to the manufacturer’s instructions. The results were obtained from three independent experiments.

BxPC-3 cells [2] = experiment: as above; type: cell-based, human; conditions: IC50 concentration, Annexin V-FITC, ± SD
Experimental: as §1, §2, §3

PC-3 cells [3] = experiment: MitoTracker Red, mitochondria membrane potential; type: cell-based, human
Experimental: (§4) The fitness of the mitochondria and changes in MMP were assessed using MitoTracker Red. Data for experimental groups were presented as mean percentage of control group fluorescence intensity ± SD value (Figure 11, Table 2). Mitotracker Red is deposited in the mitochondrial matrix in response to changes in the inner transmembrane potential of the mitochondria. The intensity of fluorescence reflects the fitness of the mitochondria and alters with changes in MMP [91]. BxPC-3 and PC-3 cells were seeded at appropriate density on a 96-well plates (Table 9). […] After appropriate incubation time, cells were incubated with MitoTracker Red (0.1 µM/200 µL PBS/well) for 40 min. Afterward, MitoTracker Red solution was removed from the wells and PBS (200 µL/well) was added. Fluorescence was read at an […] of 581/644 nm using the SpectraMax® i3x Multi-Mode Detection Platform.

BxPC-3 cells [4] = experiment: MitoTracker Red, mitochondria membrane potential; type: cell-based, human
Experimental: as §4

L929 cells = experiment: MTT assay, cell viability; type: cell-based; conditions: L929 normal mouse fibroblasts, 72 h incubation, ± SD
Experimental: (§5) A statistical program (Graphpad Prism 7) was used to analyze obtained data (MTT test). The dose–response analysis was performed to estimate the inhibitory concentration (IC50) of the tested compounds. The IC50 value is defined as a concentration of the tested compound that leads to a reduction in cell pool viability by 50% compared to the negative control (accepted as 100%). % cell viability=Absorbance value of treated cells−Absorbance value of blank/Absorbance value of untreated cells−Absorbance value of blank×100%
(§6) To estimate cell viability following 72 h incubation with the tested MM-compounds (MM134, MM136, MM137, and MM139), the MTT test was used according to the PN-EN ISO 10993-5. It is a quantitative method based on the tetrazolium yellow dye MTT [3(4,5-dimethyl-2-thiazolyl)-2,5-diphenyl-2H-tetrazolium bromide], which is converted by living cells to a purple product, formazan, the concentration of which was measured colorimetrically. The MTT assay was performed according to the procedure described by Mosmann with modifications. At a density of approximately 8 × 10^3 cells per 100 µL/well, 96-well plates were seeded. Following the given incubation period in controlled conditions (37 °C; 5% CO2), cells were exposed to different concentrations of tested compounds in DMSO (range 0.05–3 µM) in a volume of 100 µL medium per well. Final solvent concentration of DMSO was < 0.5% v/v. The experimental design included vehicle controls and blanks (wells without cells).
(§7) After 72 h of incubation of cells with tested MM-compounds, 20 µL of MTT tetrazolium salt (5 mg/mL in PBS) was added to each well, and plates were incubated once again in a humidified atmosphere for 3 h (37 °C; 5% CO2). Following the incubation time, the solutions were removed and 100 µL of DMSO was added to dissolve the formazan complexes. Subsequently, a spectrophotometer (microplate reader Power Wave XS BioTek Instruments, Inc., Winooski, VT, USA) reading was performed at 570 nm. The experiments were performed in duplicates.

WI-38 cells = experiment: MTT assay, cell viability; type: cell-based; conditions: WI-38 normal human fibroblasts, 72 h incubation, ± SD
Experimental: as §5, §6, §7

BxPC-3 cells [5] = experiment: MTT assay, cell viability; type: cell-based; conditions: Homo sapiens, BxPC-3, 72 h incubation, ± SD
Experimental: as §5, §6, §7

PC-3 cells [6] = experiment: MTT assay, cell viability; type: cell-based, human; conditions: for IC50: Homo sapiens, PC-3, 72 h incubation, MTT, ± SD
Experimental: as §5, §6, §7

[7] = BxPC-3, 24 h incubation, control 10.3 ± 2.09%
[8] = BxPC-3, 48 h incubation, control 8.3 ± 1.13%
[9] = PC-3, 24 h incubation, 0.5IC50, ± SD
[10] = PC-3, 24 h incubation, 2xIC50, ± SD
[11] = PC-3, 24 h incubation, IC50, ± SD
[12] = PC-3, 48 h incubation, 0.5IC50, ± SD
[13] = PC-3, 48 h incubation, 2xIC50, ± SD
[14] = PC-3, 48 h incubation, IC50, ± SD
[15] = BxPC-3, 24 h incubation, 0.5IC50, ± SD
[16] = BxPC-3, 24 h incubation, 2xIC50, ± SD
[17] = BxPC-3, 24 h incubation, IC50, ± SD
[18] = BxPC-3, 48 h incubation, 0.5IC50, ± SD
[19] = BxPC-3, 48 h incubation, 2xIC50, ± SD
[20] = BxPC-3, 48 h incubation, IC50, ± SD

`Cc1nn(-c2ccc(S(=O)(=O)NCCN3CCOCC3)cc2)c2nn3nnnc3nc12` [MM134] was tested, and the “mean percentage of apoptotic cells (early and late apoptotic)” value (shortened to “mean percentage of apoptotic cells”) (PC-3 cells [1]; 2xIC50 concentration) was 20.37 ± 2.5%, the “mean percentage of apoptotic cells” value (BxPC-3 cells [2]; [7]) was 65.3 ± 9.1% and the “mean percentage of apoptotic cells” value (BxPC-3 cells [2]; [8]) was 86.9 ± 1.16%. For the same compound, the “mean percentage of control group fluorescence intensity (MMP)” value (from here on “mean percentage … (MMP)”) (PC-3 cells [3]; [9]) was 100.35 ± 1.57%, the “mean percentage … (MMP)” value (PC-3 cells [3]; [10]) was 82.34 ± 2.13% and the “mean percentage … (MMP)” value (PC-3 cells [3]; [11]) was 82.5 ± 2.21%. The “mean percentage … (MMP)” value (PC-3 cells [3]; [12]) was 82.1 ± 14.45%, the “mean percentage … (MMP)” value (PC-3 cells [3]; [13]) was 64.56 ± 3.33% and the “mean percentage … (MMP)” value (PC-3 cells [3]; [14]) was 80.26 ± 13.44%. The “mean percentage … (MMP)” value (BxPC-3 cells [4]; [15]) was 88.19 ± 13.62%, the “mean percentage … (MMP)” value (BxPC-3 cells [4]; [16]) was 78.31 ± 14.34% and the “mean percentage … (MMP)” value (BxPC-3 cells [4]; [17]) was 81.23 ± 11.94%. The “mean percentage … (MMP)” value (BxPC-3 cells [4]; [18]) was 79.98 ± 11.47%, the “mean percentage … (MMP)” value (BxPC-3 cells [4]; [19]) was 68.95 ± 7.78% and the “mean percentage … (MMP)” value (BxPC-3 cells [4]; [20]) was 66.04 ± 16.7%. It also gave an IC50 (L929 cells) of 580 ± 5 nM, an IC50 (WI-38 cells) of 650 ± 70 nM and an IC50 (BxPC-3 cells [5]) of 320 ± 100 nM. For the same compound, the IC50 (PC-3 cells [6]) was 160 ± 20 nM and the “times higher cytotoxic activity in PC-3 compared to normal human fibroblasts (WI-38)” value (PC-3 cells [6]; ratio of MTT IC50, PC-3 vs WI-38) was 4 times.

`Cc1nn(-c2ccc(S(=O)(=O)N3CCN(C)CC3)cc2)c2nn3nnnc3nc12` [MM137] was tested, and the “mean percentage of apoptotic cells” value (PC-3 cells [1]; 2xIC50 concentration) was 38.93 ± 4%, the “mean percentage of apoptotic cells” value (PC-3 cells [1]; IC50 concentration) was 22.57 ± 3.18% and the “mean percentage of apoptotic cells” value (BxPC-3 cells [2]; [7]) was 18.9 ± 2.95%. The “mean percentage of apoptotic cells” value (BxPC-3 cells [2]; [8]) was 40.8 ± 1.36%, the “mean percentage … (MMP)” value (PC-3 cells [3]; [9]) was 96.26 ± 2.83% and the “mean percentage … (MMP)” value (PC-3 cells [3]; [10]) was 82.5 ± 7.99%. The “mean percentage … (MMP)” value (PC-3 cells [3]; [11]) was 87.9 ± 2.71%, the “mean percentage … (MMP)” value (PC-3 cells [3]; [12]) was 78.26 ± 2.62% and the “mean percentage … (MMP)” value (PC-3 cells [3]; [13]) was 64.19 ± 8.72%. For the same compound, the “mean percentage … (MMP)” value (PC-3 cells [3]; [14]) was 75.49 ± 5.55%, the “mean percentage … (MMP)” value (BxPC-3 cells [4]; [15]) was 89.34 ± 5.91% and the “mean percentage … (MMP)” value (BxPC-3 cells [4]; [16]) was 79.22 ± 2.22%. For the same compound, the “mean percentage … (MMP)” value (BxPC-3 cells [4]; [17]) was 79.5 ± 3.34%, the “mean percentage … (MMP)” value (BxPC-3 cells [4]; [18]) was 84.62 ± 9.01% and the “mean percentage … (MMP)” value (BxPC-3 cells [4]; [19]) was 73.8 ± 2.58%. The “mean percentage … (MMP)” value (BxPC-3 cells [4]; [20]) was 79.8 ± 6.76%, the IC50 (L929 cells) was 180 ± 0.8 nM and the IC50 (WI-38 cells) was 270 ± 40 nM. It also gave an IC50 (BxPC-3 cells [5]) of 160 ± 40 nM and an IC50 (PC-3 cells [6]) of 110 ± 7 nM.

With `Cc1nn(-c2ccc(S(=O)(=O)N3CCCCC3)cc2)c2nn3nnnc3nc12` [MM139] the “mean percentage of apoptotic cells” value (PC-3 cells [1]; 2xIC50 concentration) was 15 ± 2.42%, the “mean percentage of apoptotic cells” value (BxPC-3 cells [2]; [7]) was 59.6 ± 7.42% and the “mean percentage of apoptotic cells” value (BxPC-3 cells [2]; [8]) was 85.4 ± 6.25%. The “mean percentage … (MMP)” value (PC-3 cells [3]; [9]) was 89.2 ± 6.28%, the “mean percentage … (MMP)” value (PC-3 cells [3]; [10]) was 78.14 ± 6.56% and 78.14 ± 6.55% and the “mean percentage … (MMP)” value (PC-3 cells [3]; [11]) was 87.28 ± 15.8%. The “mean percentage … (MMP)” value (PC-3 cells [3]; [12]) was 78.91 ± 15.21%, the “mean percentage … (MMP)” value (PC-3 cells [3]; [13]) was 61.28 ± 9.16% and the “mean percentage … (MMP)” value (PC-3 cells [3]; [14]) was 65.93 ± 19.56%. The “mean percentage … (MMP)” value (BxPC-3 cells [4]; [15]) was 81.28 ± 14.44%, the “mean percentage … (MMP)” value (BxPC-3 cells [4]; [16]) was 64.23 ± 6.08% and the “mean percentage … (MMP)” value (BxPC-3 cells [4]; [17]) was 66.73 ± 3.72%. The “mean percentage … (MMP)” value (BxPC-3 cells [4]; [18]) was 76.9 ± 6.40%, the “mean percentage … (MMP)” value (BxPC-3 cells [4]; [19]) was 65.95 ± 12.53% and the “mean percentage … (MMP)” value (BxPC-3 cells [4]; [20]) was 60.35 ± 0.91%. The IC50 (L929 cells) was 260 ± 20 nM, the IC50 (WI-38 cells) was 540 ± 60 nM and the IC50 (BxPC-3 cells [5]) was 330 ± 140 nM. The IC50 (PC-3 cells [6]) was 170 ± 3 nM.
